This is an account of results in patent publication US5143923A, “Benzoisothiazole- and benziosoxazole-3-carboxamides” (Hoechst-Roussel Pharmaceuticals Inc., priority 1991, dated 1992).

In test [1] the test system is apomorphine-induced climbing. The experiment in a line: Inhibition of apomorphine-induced climbing, climbing mice assay (antipsychotic activity). In kind it is in vivo, CK-1 male mice. To be noted: for ED50: Mus musculus, ip, read-out: Antipsychotic Activity ED50. As to the method: The subject CK-1 male mice (23-27 grams) are group-housed under standard laboratory conditions. The mice are individually placed in wire mesh stick cages (4"×4"10") and are allowed one hour for adaptation and exploration of the new environment.
For evaluation of climbing, 3 readings are taken at 10, 20 and 30 minutes after apomorphine administration according to the following scale: […]
Mice consistently climbing before the injection of apormorphine are discarded.
With full-developed apomorphine climbing, the animals are hanging onto the cage walls, rather motionless, over longer periods of time. By contrast, climbs due to mere motor stimulation usually only last a few seconds.
The climbing scores are individually totaled (maximal score; 6 per mouse over 3 readings) and the total score of the control group (vehicle intraperitioneally-apomorphine subcutaneously) is set to 100%.

The test system of test [2] is apomorphine induced stereotypy. Kind of test: Inhibition of apomorphine induced stereotypy assay (extrapyramidal side effect potential). Type of test: in vivo, male Wistar rats. As to the method:
Potential for undersible extrapyramidal side effect activity is determined in the inhibition of apormorphine stereotypy assay by methods similar to those described by N. E. Anden, et al., J. Pharma.
Drugs are prepared using distilled water and, if insoluble, a suitable surfactant is added. The route of administration may be varied and the dosage volume is 10 ml/kg. For a primary screen, a group size of six is used. Drug is administered one hour prior to scoring and the animals are placed in individual clear plastic cages (24×14×13 cm). The control group receives vehicle. Apomorphine hydrochloride solution is prepared at a concentration of 15 mg/10 ml in a 0.03% ascorbic acid stock solution (30 mg of ascorbic acid in 100 ml of 1% saline) to increase the stability of the apomorphine hydrochloride while in solution. […] Fifty minutes after drug dosing, stereotypic behavior is noted. Stereotypic activity is defined as sniffing, licking or chewing behavior that occurs in a repetitive manner and is rated as follows: Constant sniffing, licking or chewing without interruption; the animal is considered protected if this behavior is interrupted.
The percent effectiveness of a drug is determined by the number of animals protected in each group.
A dose-response is run in the same manner as a primary screen except that a group size of 10 is used and the animals are dosed in a randomized manner. One group receives vehicle. ED50 for stereotypy are calculated by means of probit analysis.

[3] abbreviates: Rattus norvegicus, read-out: % Inhibition of apomorphine induced stereotypy.
Where [4] appears, read: mice, compound intraperitoneally 30 min before apomorphine 1.5 mg/kg s.c.

Structures can show the parent of a compound that is named as a salt. Where two headings read alike, the source gives them in different places.

By ED50 is commonly meant the dose at which the effect has come halfway, by size or by number of responders. For orientation: inhibition means the change of the read-out against control, counted positive when it falls. In the case of `O=C(CCCN1CCC(O)(c2ccc(Cl)cc2)CC1)c1ccc(F)cc1` [Haloperidol, reference compound], the ED50 in test [1] was found to be 0.11 mg/kg. Besides, the inhibition at 0.2 mg/kg in test [2] (setting [3]) turned out to be 50%.

As for `CN(CCCCN1CCN(c2nsc3ccccc23)CC1)C(=O)c1nsc2ccccc12` [N-Methyl-N-[4-(1-(1,2-benzisothiazol-3-yl)-4-piperazinyl)butyl]-1,2-benzisothiazole-3-carboxamide hydrochloride], the inhibition at 40 mg/kg in test [2] (setting [3]) stood at 100%.

`COc1ccccc1N1CCN(CCCCN(C)C(=O)c2nsc3ccccc23)CC1` [N-Methyl-N-[4-(1-(2-methoxyphenyl)-4-piperazinyl)butyl]-1,2-benzisothiazole-3-carboxamide dihydrochloride hemihydrate]: the “Antipsychotic Activity ED50” value in test [1] (mice, compound intraperitoneally 30 min before apomorphine 1.5 mg/kg s.c., dihydrochloride hemihydrate) is listed as 4.2 mg/kg; in test [1] (mice, compound intraperitoneally 30 min before apomorphine 1.5 mg/kg s.c., listed as N-methyl-N-[4-(1-(2-methoxyphenyl)-4-piperazinyl)butyl-1,2-benzisothiazole-3-car, dihydrochloride hemihydrate), 9.6 mg/kg. Besides, in test [2] (Rattus norvegicus, rats, dose 39.2 mg/kg body wt.), the inhibition at 39.2 mg/kg stood at 50%.

On to `CN(CCCCN1CCN(c2csc3cc(F)ccc23)CC1)C(=O)c1nsc2ccccc12.Cl` [N-Methyl-N-[4-(1-(6-fluorobenzo[b]thiophen-3-yl)-4-piperazinyl)butyl]-1,2-benzisothiazol-3-carboxamide hydrochloride], for which the 50% effective dose (ED50) in test [1] is 4.5 mg/kg. Moreover, the inhibition at 40 mg/kg in test [2] (setting [3]) came out at 100%.

Consider `CN(CCCCN1CCN(c2csc3cc(F)ccc23)CC1)C(=O)c1noc2ccccc12.Cl` [N-Methyl-N-[4-(1-(6-fluorobenzo[b]thiophen-3-yl)-4-piperazinyl)butyl]-1,2-benzisoxazole-3-carboxamide hydrochloride], for which, in test [1], the ED50 was determined as 5 mg/kg. In addition, in test [2] (setting [3]), the inhibition at 52 mg/kg was 50%.

For `COc1ccccc1N1CCN(CCNC(=O)c2nsc3ccccc23)CC1.Cl.Cl` [N-[2-(1-(2-Methoxyphenyl)-4-piperazinyl)ethyl]-1,2-benzisothiazole-3-carboxamide dihydrochloride], the ED50 in test [1] amounted to 6.3 mg/kg. The inhibition at 51.8 mg/kg in test [2] (setting [3]) was found to be 50%.

Regarding `Cl.O=C(NCCN1CCN(c2csc3cc(F)ccc23)CC1)c1noc2ccccc12` [N-[2-(1-(6-fluorobenzo[b]thiophen-3-yl)-4-piperazinyl)ethyl]-1,2-benzisoxazole-3-carboxamide hydrochloride], the ED50 in test [1] was 4.9 mg/kg. Besides, the inhibition at 80 mg/kg in test [2] (setting [3]) came to 0%.

With `Cl.O=C(NCCCCN1CCN(c2nsc3ccccc23)CC1)c1nsc2ccccc12` [N-[4-(1-(1,2-Benzisothiazol-3-yl)-4-piperazinyl)butyl]-1,2-benzisothiazole-3-carboxamide hydrochloride], the ED50 in test [1] was 8.3 mg/kg. Also, the inhibition at 40 mg/kg in test [2] (setting [3]) came out at 17%.

As to `CCN1CCCC1CNC(=O)c1cc(S(N)(=O)=O)ccc1OC` (centres unmarked) [Sulpiride, reference compound], the ED50 in test [1] (setting [4]) amounted to 4.5 mg/kg.

`CSc1ccc2c(c1)N(CCC1CCCCN1C)c1ccccc1S2` (centres unmarked) [thioridazine, reference compound]: in test [2] (Rattus norvegicus, rats, dose 16 mg/kg body wt.), the inhibition at 16 mg/kg was found to be 50%.

As for “N-[2-(1-(4-Fluorobenzoyl)-4-piperidinyl)ethyl]-1,2-benzisothiazole-3-carboxamide hydrochloride hemihydrate”, in test [1] (setting [4]), the “Antipsychotic Activity ED50” value came to 3.6 mg/kg. Further, the “% Inhibition of apomorphine induced stereotypy” value in test [2] (rats, dose 20 mg/kg body wt.) came out at 67%.
